Results: ChEMBL document CHEMBL5252536, “Discovery of VU0467485/AZ13713945: An M4 PAM Evaluated as a Preclinical Candidate for the Treatment of Schizophrenia” (ACS Med Chem Lett, 2017)
Active and inactive are the calls of the source. The calls are words filed in the database; no cut-off is given here.

What was measured:
[1] = Tmax in Sprague-Dawley rat at 3 mg/kg,po by LC-MS/MS analysis; type: ADME, organism-based; conditions: in vivo
Cytochrome P450 2B6 = target: T1, Cytochrome P450 2B6 (Homo sapiens, UniProt P20813); test: Activation of CYP2B6 in human hepatocyte using bupropion as substrate preincubated for 5 days followed by substrate addition and measured after 1 hr by LC-MS/MS analysis; type: ADME, cell-based
T1 sequence (P20813 whole entry): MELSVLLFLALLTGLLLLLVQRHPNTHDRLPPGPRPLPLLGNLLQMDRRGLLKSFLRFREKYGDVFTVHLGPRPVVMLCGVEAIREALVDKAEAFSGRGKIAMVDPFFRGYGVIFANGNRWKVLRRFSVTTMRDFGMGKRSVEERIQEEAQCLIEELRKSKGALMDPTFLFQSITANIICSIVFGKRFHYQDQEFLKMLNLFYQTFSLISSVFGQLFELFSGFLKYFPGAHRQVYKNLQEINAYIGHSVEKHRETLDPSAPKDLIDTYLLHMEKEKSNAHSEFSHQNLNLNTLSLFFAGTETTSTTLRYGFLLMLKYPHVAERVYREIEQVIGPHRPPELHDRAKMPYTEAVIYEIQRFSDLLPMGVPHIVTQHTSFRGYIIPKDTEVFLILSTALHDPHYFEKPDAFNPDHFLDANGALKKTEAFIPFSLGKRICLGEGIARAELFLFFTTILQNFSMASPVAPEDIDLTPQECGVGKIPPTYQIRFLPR

[2] = AUC (0 to infinity) in Sprague-Dawley rat at 3 mg/kg,po by LC-MS/MS analysis; type: ADME, organism-based; design: dose 3 mg/kg, route po; conditions: in vivo
[3] = target: T2, Muscarinic acetylcholine receptor M4 (Homo sapiens) (UniProt P08173); test: Positive allosteric modulator activity at human M4 receptor expressed in CHO cells co-expressing Gqi5 in absence of EC20 concentration of acetylcholine by calcium mobilization assay; type: cell-based
T2 sequence (whole entry): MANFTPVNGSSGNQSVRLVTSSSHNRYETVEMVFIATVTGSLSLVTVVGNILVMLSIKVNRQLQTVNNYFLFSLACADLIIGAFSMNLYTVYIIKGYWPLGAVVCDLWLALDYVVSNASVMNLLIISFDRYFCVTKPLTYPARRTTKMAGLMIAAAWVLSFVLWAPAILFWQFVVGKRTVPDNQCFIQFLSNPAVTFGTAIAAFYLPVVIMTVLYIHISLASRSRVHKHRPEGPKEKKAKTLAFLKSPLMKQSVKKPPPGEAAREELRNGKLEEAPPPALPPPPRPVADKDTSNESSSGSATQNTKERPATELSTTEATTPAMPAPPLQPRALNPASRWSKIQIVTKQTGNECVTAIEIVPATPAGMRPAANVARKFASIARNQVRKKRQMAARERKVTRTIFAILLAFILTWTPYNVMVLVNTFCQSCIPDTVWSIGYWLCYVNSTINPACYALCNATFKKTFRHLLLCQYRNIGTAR

[4] = Terminal plasma concentration in rat model of amphetamine-induced hyperlocomotion activity at 1 to 10 mg/kg, po measured after 1.5 hrs; type: ADME, organism-based; conditions: dose 1-10 mg/kg
[5] = target: T2, Muscarinic acetylcholine receptor M4 (Homo sapiens); test: Positive allosteric modulator activity at human M4 receptor expressed in CHO cells co-expressing Gqi5 assessed as maximal response to ACh by calcium mobilization assay relative to contol; type: cell-based; conditions: filed as positive allosteric modulator
[6] = Plasma protein binding in human assessed as unbound fraction incubated for 4 hrs by LC/MS/MS analysis; type: ADME, cell-free
[7] = Toxicity in rat assessed as effect on somatomotor parameters at 56.6 mg/kg, po measured after 6 hrs by Irwin test; type: organism-based; conditions: in vivo
Rattus norvegicus = test: Reversal of MK-801-induced hyperlocomotion activity in rat at 10 to 30 mg/kg,po preincubated for 30 mins followed by MK-801 addition and measured after 60 mins by open field test relative to control; type: functional; conditions: dose 10-30 mg/kg, time 90 min, 1.5 h
Cytochrome P450 2C9 = Cytochrome P450 2C9 (Homo sapiens, UniProt P11712); test: […] of human CYP2C9 mediated drug metabolism incubated for 5 mins followed by NADPH addition measured after 1 hr by LC-UV/MS analysis relative to control; type: ADME; conditions: recombinant enzyme, 1.083 h, time 65 min
Cytochrome P450 2C9, sequence (P11712 whole entry): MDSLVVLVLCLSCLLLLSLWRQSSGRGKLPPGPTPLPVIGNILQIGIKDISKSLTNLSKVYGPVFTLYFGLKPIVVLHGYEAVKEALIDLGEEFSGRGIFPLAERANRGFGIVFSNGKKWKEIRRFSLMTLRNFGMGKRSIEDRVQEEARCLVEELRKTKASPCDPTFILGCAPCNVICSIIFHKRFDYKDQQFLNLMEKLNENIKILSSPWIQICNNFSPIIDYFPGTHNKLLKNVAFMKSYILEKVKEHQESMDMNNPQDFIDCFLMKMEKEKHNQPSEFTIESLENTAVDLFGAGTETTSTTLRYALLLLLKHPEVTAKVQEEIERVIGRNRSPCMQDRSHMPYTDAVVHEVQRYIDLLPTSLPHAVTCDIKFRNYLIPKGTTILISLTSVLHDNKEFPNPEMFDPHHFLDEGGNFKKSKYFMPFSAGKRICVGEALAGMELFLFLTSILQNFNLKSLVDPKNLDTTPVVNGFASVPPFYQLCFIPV

[8] = Ratio of unbound drug concentration in Beagle dog brain to plasma at 3 mg/kg, po by LC-MS/MS analysis; type: ADME, organism-based, Canis lupus familiaris; conditions: read-out: K(p,uu,brain)
[9] = target: GABA-A receptor; anion channel; test: Inhibition of rat GABAA receptor; type: protein-complex assay
[10] = Tmax in Beagle dog at 3 mg/kg,po by LC-MS/MS analysis; type: ADME, organism-based, Canis lupus familiaris; conditions: in vivo
CYP1A2 = target: T3, CYP1A2 (Homo sapiens, UniProt P05177); test: Activation of CYP1A2 in human hepatocyte using phenacetin as substrate preincubated for 5 days followed by substrate addition and measured after 1 hr by LC-MS/MS analysis relative to control; type: ADME, cell-based; conditions: hepatocytes, probe phenacetin, time 121 hrs
T3 sequence (P05177 whole entry): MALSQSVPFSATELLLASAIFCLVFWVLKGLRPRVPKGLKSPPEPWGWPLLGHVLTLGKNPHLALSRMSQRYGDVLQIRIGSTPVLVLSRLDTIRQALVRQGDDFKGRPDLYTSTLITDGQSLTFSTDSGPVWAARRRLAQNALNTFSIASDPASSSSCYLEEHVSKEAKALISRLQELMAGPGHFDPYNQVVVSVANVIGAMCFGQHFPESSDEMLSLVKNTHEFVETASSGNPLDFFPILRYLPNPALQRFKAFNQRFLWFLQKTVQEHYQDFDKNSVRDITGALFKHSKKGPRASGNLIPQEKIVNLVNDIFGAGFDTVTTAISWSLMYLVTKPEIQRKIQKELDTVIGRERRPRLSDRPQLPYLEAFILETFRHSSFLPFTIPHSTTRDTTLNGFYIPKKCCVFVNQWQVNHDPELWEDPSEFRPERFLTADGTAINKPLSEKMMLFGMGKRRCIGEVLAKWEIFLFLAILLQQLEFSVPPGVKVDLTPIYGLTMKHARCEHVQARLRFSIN

[11] = Ratio of unbound drug level in Sprague-Dawley rat brain to plasma at 1 to 10 mg/kg, po by LC-MS/MS analysis; type: ADME, organism-based; conditions: dose 1-10 mg/kg, read-out: K(p,uu,brain)
[12] = Elimination half life in Beagle dog at 3 mg/kg,po or 1 mg/kg,iv by LC-MS/MS analysis; type: ADME, organism-based, Canis lupus familiaris; conditions: in vivo, read-out: beta t1/2 (converted)
[13] = Apparent permeability across apical to basolateral side in human Caco-2 cells; type: ADME, cell-based
CYP2B6 = target: T4, CYP2B6 (Homo sapiens, UniProt P20813); test: Activation of CYP2B6 in human hepatocyte using bupropion as substrate preincubated for 5 days followed by substrate addition and measured after 1 hr by LC-MS/MS analysis relative to control; type: ADME, cell-based; conditions: hepatocytes, probe bupropion, time 121 hrs
T4 sequence (P20813 whole entry): T1 sequence (P20813 whole entry)

Cytochrome P450 3A4 = Cytochrome P450 3A4 (Homo sapiens, UniProt P08684); test: Inhibition of CYP34A in human liver microsomes using midazolam as substrate incubated for 15 mins in presence of NADPH by LC/MS/MS analysis; type: ADME, Microsome
Cytochrome P450 3A4, sequence (P08684 whole entry): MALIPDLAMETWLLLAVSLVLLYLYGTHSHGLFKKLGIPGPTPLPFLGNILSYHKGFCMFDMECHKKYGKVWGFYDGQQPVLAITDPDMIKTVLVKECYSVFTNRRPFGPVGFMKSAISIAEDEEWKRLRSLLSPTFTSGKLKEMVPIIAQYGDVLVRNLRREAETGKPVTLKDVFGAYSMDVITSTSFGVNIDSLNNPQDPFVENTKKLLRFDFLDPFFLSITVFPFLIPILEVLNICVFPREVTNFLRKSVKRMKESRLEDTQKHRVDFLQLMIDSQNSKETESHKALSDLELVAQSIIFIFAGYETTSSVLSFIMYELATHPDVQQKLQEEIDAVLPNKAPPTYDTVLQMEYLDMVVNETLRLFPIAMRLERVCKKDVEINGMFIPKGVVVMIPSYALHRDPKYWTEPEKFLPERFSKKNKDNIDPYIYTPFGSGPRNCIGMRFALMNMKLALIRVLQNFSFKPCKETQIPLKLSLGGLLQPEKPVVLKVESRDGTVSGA

[14] = Genotoxicity in Salmonella typhimurium TA98 by Ames test; type: toxicity; conditions: salmonella enterica subsp. enterica serovar typhimurium

SMILES: COc1ccc(CNC(=O)c2sc3nnc(C)c(C)c3c2N)cc1F
- Tmax [1]: 1.5 h
- EC50 (Cytochrome P450 2B6): > 50 µM
- AUC(0-inf) [2]: 3.8 µM·h
- Activity [3]: inactive
- concentration at 1.5 h [4]: 1800 nM
- Activity [5]: 80.6%
- Activity ([5]; tested as the 2H-labelled form): 87.1%
- fraction unbound at 4 h [6]: 0.054
- Activity [7]: Non-Toxic
- Activity (Rattus norvegicus): 41.1%
- Activity (Cytochrome P450 2C9): 3.5%
- Kp uu [8]: 0.84
- IC50 [9]: 1200 nM
- Tmax [10]: 45 min
- Emax at 1 h (CYP1A2): ≤ 1%
- Kp uu [11]: 0.37
- half-life [12]: 78 min
- Papp A→B [13]: 31 ×10⁻⁶ cm/s
- Emax at 1 h (CYP2B6): ≤ 1%
- IC50 (Cytochrome P450 3A4): > 30 µM
- Activity [14]: Non-Toxic
